The values that follow are results of earlier work, collected in patent US20070259016A1, “Method of treating crops with submicron chlorothalonil” (priority 2006, published 2007).

For series [1] the following is noted: at 170 C.
The conditions of series [2]: acid and neutral aqueous preparations.

The structures appear in SMILES notation.

For `N#Cc1c(Cl)c(Cl)c(Cl)c(C#N)c1Cl` [chlorothalonil, 2,4,5,6-tetrachloro-1,3-dicyanobenzene], in series [1], the volatility is on record as 9.2 mmHg. Under “acetone and xylene”, the “solubility in acetone and xylene” value is “slightly soluble”. Also, the solubility in water (water) was 0.6-1.2 ppm. For the same compound, the “stability in aqueous preparations” value in series [2] is recorded as “relatively stable”.
